# From patent US8609862B2, “Use of an adrenal hormone-modifying agent” (Novartis AG, priority 2010, dated 2013)
# Target: T1, Rat CYP11B1 (Rattus norvegicus, UniProt P15393)
# T1 construct: made in house; host or cells: V79-4 cell line #259 (stably selected with geneticin and hygromycin); sonicated homogenate, 500 x g supernatant
# T1 sequence (P15393 25-499): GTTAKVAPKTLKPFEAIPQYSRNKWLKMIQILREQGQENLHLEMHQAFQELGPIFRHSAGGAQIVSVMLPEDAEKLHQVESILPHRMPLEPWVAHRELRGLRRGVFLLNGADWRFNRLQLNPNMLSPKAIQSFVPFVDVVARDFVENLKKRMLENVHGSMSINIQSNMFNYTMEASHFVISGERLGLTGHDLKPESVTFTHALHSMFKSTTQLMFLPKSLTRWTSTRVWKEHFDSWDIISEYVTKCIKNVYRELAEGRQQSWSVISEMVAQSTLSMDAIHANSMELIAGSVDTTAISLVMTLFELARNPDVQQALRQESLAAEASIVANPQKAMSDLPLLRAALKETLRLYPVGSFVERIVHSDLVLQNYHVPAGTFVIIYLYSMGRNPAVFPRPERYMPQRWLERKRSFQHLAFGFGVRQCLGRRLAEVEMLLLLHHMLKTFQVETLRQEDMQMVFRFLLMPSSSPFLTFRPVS
# Experiment: In vitro rat CYP11B1 assay
# Type: biochemical
# Conditions: V79-4 cell homogenate, 11-deoxycorticosterone to corticosterone, SPA
# From the text: Complete EDTA-free protease inhibitor tablets were obtained from Roche Applied Science (Indianapolis, Ind.). Dulbecco's modified Eagle medium (DMEM), antibiotic, geneticin, hygromycin, and fetal bovine serum (FBS) were products of Invitrogen (Carlsbad, Calif.). NADPH Regeneration Solution A and Solution B were purchased from BD Biosciences Clontech (Palo Alto, Calif.). Anti-sheep PVT SPA beads and [1,2,6,7-^3H(N)]corticosterone were acquired from Amersham (Piscataway, N.J.) and PerkinElmer (Boston, Mass.), respectively.
# For enzyme preparation, #259 cells were seeded in 150 mm dishes in double-selection medium. Following 2 days of growth, cells were washed once with PBS, scraped and collected in PBS, and centrifuged at 1,300 rpm for 6 min. […] The sonication procedure was repeated 3 more times, with a 5 min rest on ice between sonications. The sonicated material was then spun at 500×g for 4 min to remove unbroken cells. The supernatant was brought to a final glycerol concentration of 5%, flash-frozen in liquid nitrogen, and stored at −80° C.
# The CYP11B1 assays were performed in 96-well U-bottom non-tissue-culture-treated plates. […] Plates were then centrifuged at 2,400 rpm for 6 min, and 50 μl of supernatant was removed for measurement of corticosterone content by scintillation proximity assay (SPA).
# Measurement of corticosterone was performed using a 96-well plate format. […] Anti-sheep PVT SPA beads (50 μl) were then added to each well and incubated overnight at room temperature prior to counting in a Microbeta plate counter. The amount of corticosterone in each sample was calculated by comparing with a standard curve generated using known quantities of the hormone.
# Full concentration-response curves of an inhibitor were performed at least 3 times. The IC50 values were derived using a non-linear least squares curve-fitting program from IDBS XLfit.
row,IC50 [nM],Compound
1,1,"N#Cc1ccc(C2CCCCc3cncn32)c(Br)c1 (racemic) [3-bromo-4-(6,7,8,9-tetrahydro-5H-imidazo[1,5-a]azepin-5-yl)benzonitrile racemate, 3-bromo-4-(6,7,8,9-tetrahydro-5H-imidazo[1,5-a]azepin-5-yl)benzonitrile]"
2,0.3,"N#Cc1ccc(C2CCCCc3cncn32)c(-c2ccc(F)cc2)c1 (single isomer, unassigned) [4′-fluoro-6-(6,7,8,9-tetrahydro-5H-imidazo[1,5-a]azepin-5-yl)biphenyl-3-carbonitrile]"
3,2,"COc1ccc(CN(C)C(=O)C2(c3ccc(C#N)cc3Cl)CCc3cncn32)cc1 (stereo not drawn) [5-(2-chloro-4-cyanophenyl)-N-(4-methoxybenzyl)-N-methyl-6,7-dihydro-5H-pyrrolo[1,2-c]imidazole-5-carboxamide]"
